Results from ChEMBL document CHEMBL1155598, “Microcyclamide, a cytotoxic cyclic hexapeptide from the cyanobacterium Microcystis aeruginosa” (J Nat Prod, 2000).
In brackets after ≈: the same amount, converted by molar mass.

Test system: P388
Assay: Cytotoxicity against mouse P388 cells after 3 days by MTT assay
Format: functional, cell-based
Conditions: P388, 72 h

CC[C@H](C)[C@@H]1NC(=O)c2nc(oc2C)[C@H](C)NC(=O)c2csc(n2)[C@H](Cc2cncn2C)NC(=O)c2csc1n2 [MICROCYCLAMIDE] showed an IC50 of 1.2 µg/mL (≈ 2.06 µM).
